Consider two compounds from US6933302B2, “Nitrogen-based homo-camptothecin derivatives” (California Pacific Medical Center, priority 2002, dated 2005).

In the experiment the test system is VM46 cells. Kind of experiment: Cell colony formation assay. Particulars: 72 hours drug incubation at 37° C., colonies counted after 8 days. It counts as cell-based. As for the experimental part: This example provides directions for growing cells and testing compounds of the invention for their effect on the growth of the cells. All cells can be purchased from DCTDC Tumor Repository, NCI, NIH.
Cell Colony Formation Assay
Five hundred cells (VM46) are plated in 60 mm Petri dishes containing 2.7 ml of medium (modified McCoy's 5a medium containing 10% fetal bovine serum and 100 units/ml penicillin and […]). The cells are incubated in a CO2 incubator at 37° C. for 5 hours for attachment to the bottom of Petri dishes. Drugs are made fresh in medium at ten times the final concentration, and then 0.3 ml of this stock solution is added to the 2.7 ml of medium in the dish. The cells are then incubated with drugs for 72 hours at 37° C. At the end of the incubation the drug-containing media are decanted, the dishes are rinsed with 4 ml of Hank's Balance Salt Solution (HBSS), 5 ml of fresh medium is added, and the dishes are returned to the incubator for colony formation. The cell colonies are counted using colony counter after incubation for 8 days for VM46 cells. Cell survival (%) is calculated .
Values of ID50 (the drug concentration producing 50% inhibition of colony formation) may be determined for each tested compound. Results are shown in Table I for hCPT as a compound of this invention taught in Example 16.

Take `CCC1(OC(=O)CCN2CCCCC2)CC(=O)OCc2c1cc1n(c2=O)Cc2cc3ccccc3nc2-1` (centres unmarked) [Example 021219, Homocamptothecin-20-O ester of 1-piperidine Propionic Acid]: the “Value of ID50 (drug concentration producing 50% inhibition of colony formation)” value came out at 3.5 NM.
Consider `CC[C@@]1(O)CC(=O)OCc2c1cc1n(c2=O)Cc2cc3ccccc3nc2-1` [hCPT, homo-camptothecin], for which the “Value of ID50 (drug concentration producing 50% inhibition of colony formation)” value turned out to be 4 NM.
